# Reference: paper PMC6264741, “Chemical Constituents and Biological Studies of the Leaves of Grevillea robusta” (Molecules, 2011)
# Like-named read-outs stand apart in the source and are kept apart here. Numbered stars: 1 amine (or outer) side, 2 acyl side, 3 side chain; on linkers, the order of the positions; unused ones are H or OH. Bridge positions count the residues as written; N and C are the ends. Square brackets hold non-standard residues; d marks the D form. Peptide text beside a SMILES is read from it. I, II: the chains in the order shown. Actinocin(9to1) = Cc1c2oc3c(C)ccc(C(=O)[*:1])c3nc-2c(C(=O)[*:2])c(N)c1=O; NMeV = CN[C@H](C(=O)O)C(C)C; Sar = CNCC(=O)O
# Legend:
# [1] = system: MCF-7 human breast tumor cell line; test: Cytotoxicity assay, MCF-7; assay type: cell-based; conditions: MCF7, mean ± SD (n = 3–8)
# Method: (§1) Compounds 1−8, 11−18, 20, and 21 were subjected to cytotoxic evaluation. The clinically applied anticancer agent, actinomycin D, was used as a positive control for the cytotoxicity assays.
# (§2) The cytotoxicity assay was carried out according to procedures that have been previously described in the literature.
# [2] = system: NCI-H460 human lung tumor cell line; test: Cytotoxicity assay, NCI-H460; assay type: cell-based; conditions: mean ± SD (n = 3–8)
# Method: as §1, §2
# [3] = system: SF-268 human central nervous system tumor cell line; test: Cytotoxicity assay, SF-268; assay type: cell-based; conditions: mean ± SD (n = 3–8)
# Method: as §1, §2
# [4] = system: NCI-H460 human lung tumor cell line; set-up: method as in PMID 20704331; conditions: positive control; cited from earlier work
# [5] = system: MCF-7 human breast tumor cell line; set-up: method as in PMID 20704331; conditions: positive control; cited from earlier work
# [6] = system: SF-268 human central nervous system tumor cell line; set-up: method as in PMID 20704331; conditions: positive control; cited from earlier work
# [7] = DPPH free radical scavenging activity assay; set-up: DPPH inhibition activity (Inhibition %): dose or concentration left out as unconfirmed; conditions: mean ± S.E.M (n = 3); for IC50: 0.1 mM DPPH in ethanol, 30 min, 517 nm, read-out: DPPH inhibition activity IC50
# Method: The free radical scavenging activity of compounds 1, 4, 5, 7, 8, 11−18, and 20 was measured with DPPH^• using the method of Chiu et al.. Briefly, 0.1 mM solution of DPPH^• in ethanol was prepared, and sample (20 μL) was added. The sample was thoroughly mixed and kept in the dark for 30 min. The absorbance was measured at 517 nm on a Quant universal microplate spectrophotometer. α-Tocopherol (Sigma Chemical Co.) was used as a standard agent. A lower absorbance of the reaction mixture indicated a higher free radical scavenging activity. The sample concentration that was used to provide the IC50 data was calculated from a graph plotting inhibition percentage against sample concentration. Tests were performed in triplicate.
structure (smiles),measurement,setting,value
"CCCCCCCCCCCCCCC[C@H]1CC(=O)C[C@@H](O)C1 (relative stereo) [Compound 2, cis-3-hydroxy-5-pentadecylcyclohexanone]",melting point,,62 to 64 °C
same,IC50,[1],26.7 ± 1.9 µM
same,IC50,[2],42.6 ± 3.6 µM
same,IC50,[3],20.5 ± 0.6 µM
"Cc1c2oc3c(C)ccc(C(=O)N[C@@H]4C(=O)N[C@H](C(C)C)C(=O)N5CCC[C@H]5C(=O)N(C)CC(=O)N(C)[C@@H](C(C)C)C(=O)O[C@@H]4C)c3nc-2c(C(=O)N[C@@H]2C(=O)N[C@H](C(C)C)C(=O)N3CCC[C@H]3C(=O)N(C)CC(=O)N(C)[C@@H](C(C)C)C(=O)O[C@@H]2C)c(N)c1=O [Actinomycin D, actinomycin D] (I: T[dV]P[Sar][NMeV] / II: T[dV]P[Sar][NMeV]; ester I:1-I:C, II:1-II:C; linker I:N-II:N via Actinocin(9to1))",IC50,[4],0.008 µM
same,IC50,[5],0.103 µM
same,IC50,[6],0.016 µM
"COC(=O)/C=C/C1(O)C=CC(=O)C=C1 [Compound 1, 4-hydroxy-4-(3-methoxycarbonyl)ethenylcyclohexadien-1-one]",IC50,[1],15 ± 3 µM
same,IC50,[7],23 ± 0.53 µM
same,IC50,[2],10.8 ± 2.3 µM
same,IC50,[3],5.9 ± 0.1 µM
"CCOc1ccc(O)c(C=CC(=O)OC)c1 [Compound 3, methyl 5-ethoxy-2-hydroxycinnamate]",melting point,,98 to 100 °C
same,IC50,[1],> 50 µM
same,IC50,[2],> 50 µM
same,IC50,[3],> 50 µM
"COC(=O)C=Cc1cc(O)ccc1O [Compound 4, methyl 2,5-dihydroxycinnamate]",IC50,[1],> 50 µM
same,IC50,[7],0.53 ± 0.09 µM
same,IC50,[2],> 50 µM
same,IC50,[3],> 50 µM
"Oc1cc2cc(c1)Oc1c(O)cc(cc1O)[C@H](O)CCCCCCCCCCCCC2 [Compound 5, gravicycle]",IC50,[7],25.7 ± 0.32 µM
"Oc1cc2cc(c1)Oc1c(O)cc(cc1O)CCCCCCCCCCCCCC2 [Compound 7, robustol]",IC50,[7],28.8 ± 0.42 µM
"Oc1cc2cc(c1)Oc1c(O)cc(cc1O)CCCCCCCC=CCCCCC2 [Compound 8, dehydrobustol-A]",IC50,[7],11.8 ± 0.88 µM
"COc1cc(O)cc2c1-c1c(O)cc(cc1O)CCCCCCCCCCCCCC2 [Compound 11, methylgraviphane]",DPPH inhibition activity (Inhibition %),[7],(28.21 ± 0.23) %
"COc1cc(O)cc2c1-c1c(O)cc(cc1O)CCCCCCCC=CCCCCC2 [Compound 12, methyldehydrograviphane]",IC50,[7],15.7 ± 0.31 µM
"Oc1cc(O)c2c(c1)CCCCCCCCCCCCCCc1cc(O)c-2c(O)c1 [Compound 13, graviphane]",IC50,[7],3.96 ± 0.55 µM
"Oc1cc(O)c2c(c1)CCCCC/C=C/CCCCCCCc1cc(O)c-2c(O)c1 [Compound 14, dehydrograviphane]",IC50,[7],2.05 ± 0.22 µM
"COc1cc(O)cc(CCCCCCCCCCCCCCc2cc(O)cc(O)c2)c1 [Compound 15, bisgravillol]",IC50,[7],36.7 ± 0.43 µM
"COc1cc(O)cc(CCCCCCC/C=C/CCCCCc2cc(O)cc(O)c2)c1 [Compound 16, dehydrobisgravillol]",IC50,[7],28.9 ± 0.67 µM
"Oc1cc(O)cc(CCCCCCCCCCCCCCc2cc(O)cc(O)c2)c1 [Compound 17, bis-norstriatol]",IC50,[7],31.3 ± 0.34 µM
"Oc1cc(O)cc(CCCCCC=CCCCCCCCc2cc(O)cc(O)c2)c1 [Compound 18, 5-[14'-(3'',5''-dihydroxyphenyl)-cis-tetradec-6'-en-1'-yl]benzene-1,3-diol]",IC50,[7],35.2 ± 0.48 µM
"CCCCCCCCCCCCCCCc1cc(O)cc(O)c1 [Compound 20, cis-5-n-pentadecylresorcinol]",DPPH inhibition activity (Inhibition %),[7],(21.32 ± 0.21) %
"Cc1c(C)c2c(c(C)c1O)CC[C@@](C)(CCC[C@H](C)CCC[C@H](C)CCCC(C)C)O2 [α-tocopherol, reference compound]",IC50,[7],3.1 ± 0.05 µM
